Measurements: patent US9108963B2, “Pyrazolopyridine, pyrazolopyrazine, pyrazolopyrimidine, pyrazolothiophene and pyrazolothiazole compounds as MGLUR4 allosteric potentiators, compositions, and methods of treating neurological dysfunction” (Vanderbilt University, priority 2010, dated 2015)

What was measured:
mGluR4 = mGluR4 (UniProt Q14833); assay: mGluR4 potentiation assay (Ca2+ or thallium flux fluorescence, agonist EC20); type: cell-based, human or rat; settings: Table 3; read-out: mGlu4 EC50
Protocol: The disclosed compounds and compositions can be evaluated for their ability to act as a potentiator of metabotropic glutamate receptor activity, in particular mGluR4 activity, by any suitable known methodology known in the art. For example, Chinese Hamster Ovary (CHO) cells transfected with human mGluR4 or HEK cells co-transfected with rat mGluR4 and the G-protein regulated Inwardly Rectifying Potassium channel (GIRK) were plated in clear bottom assay plates for assay in a Hamamatsu FDSS Fluorometric Plate Reader. The cells were loaded with either a Ca2+-sensitive fluorescent dye or the thallium responsive dye and the plates were washed and placed into a suitable kinetic plate reader. For human mGluR4 assays, a fluorescence baseline was established for 3-5 seconds, the disclosed compounds were then added to the cells, and the response in cells was measured. Approximately two and a half minutes later, a concentration of mGluR4 orthosteric agonist (e.g. glutamate or L-AP4) eliciting approximately 20% (EC20) of the maximal agonist response was added to the cells, and the response was measured. Two minutes later, a concentration of mGluR4 agonist (e.g. glutamate or L-AP4) eliciting 80% (EC80) of the maximal agonist response was added to the cells, and the response was measured. For rat mGluR4/GIRK experiments, a baseline was established for approximately five seconds, disclosed compounds were added, and either an EC20 or EC80 concentration of agonist was added approximately two and one half minutes later.
The above described assay operated in two modes. In the first mode, a range of concentrations of the disclosed compounds are added to cells, followed by a single fixed concentration of agonist. If the compound acts as a potentiator, an EC50 value for potentiation and a maximum extent of potentiation by the compound at this concentration of agonist is determined by non-linear curve fitting. If the compound acts as a noncompetitive antagonist, an IC50 value is determined by non-linear curve fitting. In the second mode, several fixed concentrations of the disclosed compounds are added to various wells on a plate, followed by a range in concentrations of agonist for each concentration of disclosed compound. The EC50 values for the agonist at each concentration of compound are determined by non-linear curve fitting. A decrease in the EC50 value of the agonist with increasing concentrations of the sample compound (a leftward shift of the agonist concentration-response curve) is an indication of the degree of mGluR4 potentiation at a given concentration of the sample compound. A decrease in the maximal response of the agonist with increasing concentrations of the sample compounds, with or without a rightward shift in agonist potency, is an indication of the degree of noncompetitive antagonism at mGluR4. The second mode also indicates whether the sample compounds also affect the maximum response to mGluR4 to agonists.

mGluR5 = molecular target: T1, mGluR5 (Rattus norvegicus, UniProt P31424); assay: mGluR5 negative allosteric modulation, decrease in response to non-maximal glutamate in HEK cells; type: cell-based; settings: Table 3; read-out: mGlu5 IC50
T1 construct: expressed in transfected cells; host or cells: human embryonic kidney (HEK) cells
Source text: Embodiments of the present invention are also mGluR5 negative allosteric modulators. Accordingly, in one aspect, the invention relates to compounds that are also useful as negative allosteric modulators of the metabotropic glutamate receptor subtype 5 (mGluR5). Negative allosteric modulators are non-competitive antagonists and can include a range of maximal antagonist activity from partial antagonists to inverse agonists. In one aspect, the present invention relates to compounds that allosterically modulate mGluR5 receptor activity, affecting the sensitivity of mGluR5 receptors to agonists without acting as orthosteric agonists themselves. […] The compounds of the invention can be useful in the treatment neurological and psychiatric disorders associated with glutamate dysfunction and other diseases in which metabotropic glutamate receptors are involved, as further described herein. […] In further aspect, the human embryonic kidney cells are transfected with human mGluR5. In yet a further aspect, human embryonic kidney cells are transfected with mGluR5 of a mammal.
In further aspect, the human embryonic kidney cells are transfected with human mGluR5. In yet a further aspect, human embryonic kidney cells are transfected with mGluR5 of a mammal.

T1 sequence (P31424 21-1203): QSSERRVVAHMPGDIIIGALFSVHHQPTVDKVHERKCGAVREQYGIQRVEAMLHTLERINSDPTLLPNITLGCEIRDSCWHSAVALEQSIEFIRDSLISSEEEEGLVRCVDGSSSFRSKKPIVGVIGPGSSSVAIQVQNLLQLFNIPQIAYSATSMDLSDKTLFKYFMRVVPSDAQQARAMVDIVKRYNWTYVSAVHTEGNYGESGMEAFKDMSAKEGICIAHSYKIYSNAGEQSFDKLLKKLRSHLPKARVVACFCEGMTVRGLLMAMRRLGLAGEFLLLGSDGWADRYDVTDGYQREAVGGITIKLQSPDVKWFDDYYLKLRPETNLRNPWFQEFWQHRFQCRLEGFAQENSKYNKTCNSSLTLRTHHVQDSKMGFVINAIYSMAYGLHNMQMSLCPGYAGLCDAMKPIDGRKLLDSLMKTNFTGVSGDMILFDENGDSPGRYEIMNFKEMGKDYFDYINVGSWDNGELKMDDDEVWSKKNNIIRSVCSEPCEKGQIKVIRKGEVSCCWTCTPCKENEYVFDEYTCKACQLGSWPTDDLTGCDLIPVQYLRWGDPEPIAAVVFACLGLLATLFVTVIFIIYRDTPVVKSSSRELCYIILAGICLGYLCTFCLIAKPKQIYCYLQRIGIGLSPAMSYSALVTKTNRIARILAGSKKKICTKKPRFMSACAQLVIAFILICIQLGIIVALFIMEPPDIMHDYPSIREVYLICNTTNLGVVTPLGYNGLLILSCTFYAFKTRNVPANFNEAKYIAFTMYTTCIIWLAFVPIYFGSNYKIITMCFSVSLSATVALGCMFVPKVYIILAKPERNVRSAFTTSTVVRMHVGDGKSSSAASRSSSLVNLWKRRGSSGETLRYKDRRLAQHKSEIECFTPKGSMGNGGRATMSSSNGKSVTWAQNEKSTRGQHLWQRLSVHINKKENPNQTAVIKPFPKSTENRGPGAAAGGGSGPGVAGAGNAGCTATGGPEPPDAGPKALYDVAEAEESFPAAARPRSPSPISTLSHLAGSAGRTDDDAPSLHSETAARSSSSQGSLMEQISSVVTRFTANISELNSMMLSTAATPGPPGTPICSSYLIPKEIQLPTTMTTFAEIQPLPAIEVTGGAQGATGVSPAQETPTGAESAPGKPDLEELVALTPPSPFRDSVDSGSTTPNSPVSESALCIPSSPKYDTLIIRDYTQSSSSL

EC50 (mGluR4) | IC50 (mGluR5) | SMILES
38 nM | 3700 nM | Clc1cc(Nc2n[nH]c3cccnc23)ccc1Nc1cnc2ccccc2n1 [Example 126, 2-chloro-N4-(1H-pyrazolo[4,3-b]pyridin-3-yl)-N1-(quinoxalin-2-yl)benzene-1,4-diamine]
53.1 nM | 22 nM | Clc1cc(Nc2n[nH]c3cccnc23)ccc1Nc1cccnc1 [Example 127, 2-chloro-N4-(1H-pyrazolo[4,3-b]pyridin-3-yl)-N1-(pyridin-3-yl)benzene-1,4-diamine]
19.4 nM | 970 nM | Cc1ccnc(Nc2ccc(Nc3n[nH]c4cccnc34)cc2Cl)c1 [Example 129, 2-chloro-N1-(4-methylpyridin-2-yl)-N4-(1H-pyrazolo[4,3-b]pyridin-3-yl)benzene-1,4-diamine]
